The test system of one data set is MDA-MB-231 cells. The data set is described as follows: Annexin V assay by flow cytometry (phosphatidylserine externalization). Format: cell-based. The source says:
Phosphatidylserine externalization is a cellular process that involves the translocation of phosphatidylserine from the inner leaflet of the cell's plasma membrane to the outer leaflet. The externalization of phosphatidylserine is recognized by other cells as a signal for engulfment and removal without causing inflammation or damage.
The plot illustrated in FIG. 3 was generated by Annexin V assay analyzed by flow cytometry showing the externalization of the phospholipid phosphatidylserine (PS). Treatment of MDA-MB-231 cells with PTA-1 at concentrations of 10 μM and 20 μM for 24 hours induces apoptosis as shown by PS externalization. Each bar represents the average of at least three technical replicates.

Data set [1] has as its system caspase-3 in MDA-MB-231 cells. The data set is described as follows: Caspase-3 activation, NucView 488 substrate, flow cytometry. Type of data set: cell-based. The source says:
FIG. 4 depicts a plot illustrating PTA-1 induced caspase-3 activation in accordance with an illustrative embodiment. In FIG. 4, the induction of apoptosis from PTA-1 is corroborated by detecting the activation of the enzyme caspase-3. The fluorogenic reagent NucView 488 caspase-3 substrate was used to detect the activation of caspase 3 via flow cytometry. […] The average of 3 replicates is represented by each bar.
Caspase enzymes are activated during apoptosis and eventually result in DNA cleavage. In this example, caspase-3 is activated after exposure of the MDA-MB-231 cells at a concentration of 10 μM and 20 μM of PTA-1. […] The data shown in FIG. 4 corroborate the induction of apoptosis as the mechanism of cell death.

The test system of the next data set is tubulin. The data set is described as follows: Tubulin polymerization kinetics (absorbance at 340 nm). Type of data set: biochemical. The source says: FIG. 9 depicts a graph illustrating tubulin polymerization of cells treated with PTA-1 in accordance with an illustrative embodiment. Graph 900 illustrates the kinetic curves of four different treatments for tubulin polymerization.
In this illustrative example, absorbance is directly correlated with tubulin polymerization. Therefore, if polymerization happens, there is an increase in the absorbance at 340 nm. […] In graph 900 tubulin polymerization can be clearly observed from the increasing absorbance after treatment with PTX. In this example, tubulin polymerization for cells treated with PTX drops immediately after 10 minutes.

Data set [2] relates to microtubules and microfilaments of MDA-MB-231 cells. The data set is described as follows: Cytoskeleton imaging by fluorescence microscopy. Type of data set: cell-based. The conditions noted are these: 10 μM, 4 hours. The source says:
FIG. 8 illustrates alterations in cytoskeletal structures of MDA-MB-231 cells in response to treatment with PTA-1 in accordance with an illustrative embodiment. To test the hypothesis that PTA-1 acts as a tubulin inhibitor, we tested if it could cause alterations in the microtubule organization of MDA-MB-231 cells.
Disruption of cellular microtubules of MDA-MB-231 cells can be assessed by imaging microtubules using fluorescence microscopy.

The test system of data set [3] is MCF10A cell line (non-cancerous breast epithelial cells). The data set is described as follows: Differential nuclear staining cytotoxicity assay, MCF10A. Format: cell-based. The conditions noted are these: MCF10A non-cancerous cell line vs cancerous lines. The source says:
(§1) In this illustrative example, PTA-1 can be identified through compound screening by performing differential nuclear staining assay on acute lymphoblastic leukemia CEM T-cell line. Differential nuclear staining assay measures cell viability using Hoechst 33342 fluorescent stain and propidium iodide dyes that stain all nuclei and dead cell nuclei.
(§2) With reference now to FIG. 2, a table for evaluating cytotoxicity of PTA-1 on different cell lines is depicted in accordance with an illustrative embodiment. In FIG. 2, PTA-1 with chemical structure 100 shown in FIG. 1 is tested to determine cytotoxic activities of PTA-1 on different cell lines.
(§3) In table 200, column 202 indicates the type of cells that are used to test cytotoxic activities of PTA-1, column 204 indicates the cell line used to test cytotoxic activities of PTA-1, column 206 indicates the CC50 values for different cell lines, and column 208 indicates the length of time that different cell lines are exposed to PTA-1. […]
(§4) In this illustrative example, the selective cytotoxicity index value is used to determine if a compound has activity preferentially toward cancer cells. […] The selective cytotoxicity index (SCI) value is calculated by dividing the CC50 of the compound in non-cancerous cells (HS27 human fibroblasts or MCF-10A breast epithelial cells) by the CC50 in cancer cells. […]

Another data set deals with MDA-MB-231 cell cycle. The data set is described as follows: Cell cycle analysis. Type of data set: cell-based. The source says: FIGS. 5A-5D show the percentages of cells that are affected in different phase after treatment of PTA-1.
FIGS. 5A-5D illustrate how PTA-1 alters the progression of the MDA-MB-231 cell cycle. Etoposide is used as a positive control. FIG. 5A illustrates PTA-1 induced DNA fragmentation as denoted in the sub G0/G1 phase.

Data set [4] relates to HS27 human fibroblasts (non-cancerous). The data set is described as follows: Differential nuclear staining cytotoxicity assay, HS27. Type of data set: cell-based. The following applies: HS27 non-cancerous cell line vs cancerous lines.
Description: as §1, §2, §3, §4

Another data set relates to Jurkat cell line. The data set is described as follows: Differential nuclear staining cytotoxicity assay, Jurkat. Format: cell-based. The conditions noted are these: Homo sapiens, read-out: CC50 (50% cytotoxic concentration). The source says: In this illustrative example, PTA-1 can be identified through compound screening by performing differential nuclear staining assay on acute lymphoblastic leukemia CEM T-cell line. Differential nuclear staining assay measures cell viability using Hoechst 33342 fluorescent stain and propidium iodide dyes that stain all nuclei and dead cell nuclei. With reference now to FIG. 2, a table for evaluating cytotoxicity of PTA-1 on different cell lines is depicted in accordance with an illustrative embodiment. In FIG. 2, PTA-1 with chemical structure 100 shown in FIG. 1 is tested to determine cytotoxic activities of PTA-1 on different cell lines. In table 200, column 202 indicates the type of cells that are used to test cytotoxic activities of PTA-1, column 204 indicates the cell line used to test cytotoxic activities of PTA-1, column 206 indicates the CC50 values for different cell lines, and column 208 indicates the length of time that different cell lines are exposed to PTA-1. […] In this illustrative example, a lower CC50 value for a cell line indicates a higher level of PTA-1 cytotoxicity, meaning that PTA-1 is more toxic to the cell line.

Data set [5] can be described thus: Differential nuclear staining cytotoxicity assay, A549. The following applies: human; CC50 in non-cancerous cells divided by CC50 in A549; read-out: Selective cytotoxicity index (SCI). Format: cell-based.
Description: as §1, §2, §3, §4

Data set [6] deals with A549 cell line for lung cancer. Described as above. Type of data set: cell-based. The conditions noted are these: A549, among all cancerous cell lines.
Description: as §1, §2, §3, §4

The next data set concerns MDA-MB-231 cell line. The data set is described as follows: Differential nuclear staining cytotoxicity assay, MDA-MB-231. Type of data set: cell-based. The conditions noted are these: MDA-MB-231, among all cancerous cell lines.
Description: as §1, §2, §3, §4

Assay in data set [7]: as above
Type of data set: cell-based. The following applies: human; CC50 in MCF10A divided by CC50 in MDA-MB-231; read-out: Selective cytotoxicity index (SCI).
Description: as §1, §2, §3, §4

Data set [8] is described as follows: Differential nuclear staining cytotoxicity assay, NALM6. The conditions noted are these: human; CC50 in non-cancerous cells divided by CC50 in NALM6; read-out: Selective cytotoxicity index (SCI). Format: cell-based.
Description: as §1, §2, §3, §4

We go through five molecules from US20240139157A1, “Novel Tubulin Polymerization Inhibitor for Cancer Therapy” (Board of Regents, The University of Texas System, priority 2022, published 2024).

SMILES strings stand for the structures.

Take `OO` [H2O2, reference compound]: in the data set with MDA-MB-231 cells (positive control), the “Cell population with phosphatidylserine externalization” value is listed as 49.9%.

For `COc1ccc(-c2cnn(CC(=O)Nc3cnn(C)n3)c2)cc1C(F)(F)F` [PTA-1, 2-{4-[4-methoxy-3-(trifluoromethyl)phenyl]-1H-pyrazol-1-yl}-N-(2-methyl-2H-1,2,3-triazol-4-yl)acetamide], the Caspase-3 activation entry in [1] (10 μM) and in [1] (20 μM) was “significantly induced the activation of Caspase 3” throughout. Moreover, the “Absorbance (tubulin polymerization)” value with tubulin (340 nm, after 60 minutes of treatment, DMSO 0.3702) amounted to 0.3247. Also, the “Duration of nucleation phase (absorbance starts increasing)” value with tubulin (absorbance at 340 nm) is on record as “four”. Besides, the “Kinetic curve of tubulin polymerization compared with DMSO” value in the data set on tubulin (absorbance at 340 nm) is “never reached the absorbance values of cells treated with DMSO”. The “Time to reach steady state of tubulin polymerization” value with tubulin (absorbance at 340 nm) came to 20 min. Besides, the “Microfilament structure (phalloidin-Alexa-568 staining)” value in [2] is on record as “remained unaltered”. For the same molecule, the “Microtubule organization (α-tubulin-Alexa-488 staining)” value in [2] was “disrupts the microtubule organization”. Moreover, the “Cell population with phosphatidylserine externalization” value with MDA-MB-231 cells (10 μM, 24 hours) came out at 59.4%; in the data set on MDA-MB-231 cells (20 μM, 24 hours) it was 59.7%. Also, the “Sensitivity to PTA-1 (CC50 comparison)” value is given as “significantly lower sensitivity” in data set [3], “significantly lower sensitivity” in [4], “most sensitive” in data set [6] and “least sensitive” in the data set with MDA-MB-231 cell line. The “Cells in the G2/M phase” value in the data set on MDA-MB-231 cell cycle (1.25 μM) is 53.25%; with MDA-MB-231 cell cycle (2.5 μM) it was 71.5%; with MDA-MB-231 cell cycle (5 μM) it was 66.47%. The “Cells in the S phase” value with MDA-MB-231 cell cycle (1.25 μM) is 19.8%; in the data set on MDA-MB-231 cell cycle (2.5 μM), 15.34%; in the data set on MDA-MB-231 cell cycle (5 μM) it was 24.6%. Also, the “DNA fragmentation (sub G0/G1 phase) vs DMSO and untreated” value in the data set with MDA-MB-231 cell cycle (1.25 μM), in the data set on MDA-MB-231 cell cycle (2.5 μM) and with MDA-MB-231 cell cycle (5 μM) was “significantly higher rates of DNA fragmentations” throughout. The “Cells in the G0/G1 phase” value in the data set on MDA-MB-231 cell cycle (different concentrations) is on record as “did not result in a higher percentage of cells in the G0/G1 phase”. Besides, in the data set with Jurkat cell line, the CC50 amounted to 320 nM. For the same molecule, the selectivity ratio stood at 105 in [5], 4.73 in [7] and 8.65 in [8].

Take `CC[C@]1(O)C[C@@H]2CN(CCc3c([nH]c4ccccc34)[C@@](C(=O)OC)(c3cc4c(cc3OC)N(C)[C@H]3[C@@](O)(C(=O)OC)[C@H](OC(C)=O)[C@]5(CC)C=CCN6CC[C@]43[C@@H]65)C2)C1` [Vinblastine, reference compound]: in the data set with tubulin (absorbance at 340 nm), the “Duration of nucleation phase (absorbance starts increasing)” value is “four” and the “Kinetic curve of tubulin polymerization compared with DMSO” value was “never reached the absorbance values of cells treated with DMSO”.

With `COc1cc([C@@H]2c3cc4c(cc3[C@@H](O[C@@H]3O[C@@H]5CO[C@@H](C)O[C@H]5[C@H](O)[C@H]3O)[C@H]3COC(=O)[C@H]23)OCO4)cc(OC)c1O` [etoposide, reference compound], in the data set with MDA-MB-231 cell cycle (positive control), the “Cells in the G2/M phase” value was found to be 15.4% and the “Cells with DNA fragmentation (sub G0/G1 phase)” value is 28.6%.

For `CC(=O)O[C@H]1C(=O)[C@@]2(C)[C@H]([C@H](OC(=O)c3ccccc3)[C@]3(O)C[C@H](OC(=O)[C@H](O)[C@@H](NC(=O)c4ccccc4)c4ccccc4)C(C)=C1C3(C)C)[C@]1(OC(C)=O)CO[C@@H]1C[C@@H]2O` [paclitaxel, reference compound], in the data set with tubulin (absorbance at 340 nm), the “Growth phase of tubulin polymerization” value is “started immediately” and the “Time after which tubulin polymerization drops” value turned out to be 10 min.
